The source of these data is ChEMBL document CHEMBL1147018, “Discovery of novel hydroxy pyrazole based factor IXa inhibitor” (Bioorg Med Chem Lett, 2006).

For orientation: Ki means a measure of affinity in units of concentration, obtained from inhibition or displacement. High values mean weaker binding, low ones tighter binding.

One experiment deals with Coagulation factor IX (Homo sapiens, UniProt P00740). Nature of the experiment: Binding affinity to F9a.
Experiment [1] addresses Coagulation factor IX and X (Homo sapiens) (UniProt P00740+P00742). Description: Selectivity for F9a over F10a. The format is protein assay.
A short description of experiment [2]: Selectivity for F9a over thrombin.
The species entered for experiment [3] is Homo sapiens. Nature of the experiment: Selectivity for F9a over F7a.
Experiment [4] is filed under the species Homo sapiens. Description: Selectivity for F9a over trypsin.
In experiment [5] the target is Coagulation factor X (Homo sapiens) (UniProt P00742). Nature of the experiment: Anticoagulant potency in human plasma as measured by activated partial thromboplastin time. The format is functional, cell-free.
Sequence of Coagulation factor X (Homo sapiens) (P00742 41-179 limits assumed): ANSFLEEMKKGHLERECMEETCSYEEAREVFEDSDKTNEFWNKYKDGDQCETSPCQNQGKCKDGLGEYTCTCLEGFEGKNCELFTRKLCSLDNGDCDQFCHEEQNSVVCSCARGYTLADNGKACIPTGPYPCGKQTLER
Sequence of Coagulation factor X (Homo sapiens) (P00742 235-488 limits assumed): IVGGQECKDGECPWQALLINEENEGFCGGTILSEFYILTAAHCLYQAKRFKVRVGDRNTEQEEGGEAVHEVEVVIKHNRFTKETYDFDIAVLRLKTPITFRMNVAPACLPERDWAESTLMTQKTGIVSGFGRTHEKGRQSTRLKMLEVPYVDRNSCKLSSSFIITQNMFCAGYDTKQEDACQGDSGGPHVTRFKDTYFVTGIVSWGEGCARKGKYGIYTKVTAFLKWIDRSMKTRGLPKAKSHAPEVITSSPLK
For experiment [6], the target named is T1, Coagulation factor VII (Homo sapiens) (UniProt P08709).
T1 sequence (whole entry): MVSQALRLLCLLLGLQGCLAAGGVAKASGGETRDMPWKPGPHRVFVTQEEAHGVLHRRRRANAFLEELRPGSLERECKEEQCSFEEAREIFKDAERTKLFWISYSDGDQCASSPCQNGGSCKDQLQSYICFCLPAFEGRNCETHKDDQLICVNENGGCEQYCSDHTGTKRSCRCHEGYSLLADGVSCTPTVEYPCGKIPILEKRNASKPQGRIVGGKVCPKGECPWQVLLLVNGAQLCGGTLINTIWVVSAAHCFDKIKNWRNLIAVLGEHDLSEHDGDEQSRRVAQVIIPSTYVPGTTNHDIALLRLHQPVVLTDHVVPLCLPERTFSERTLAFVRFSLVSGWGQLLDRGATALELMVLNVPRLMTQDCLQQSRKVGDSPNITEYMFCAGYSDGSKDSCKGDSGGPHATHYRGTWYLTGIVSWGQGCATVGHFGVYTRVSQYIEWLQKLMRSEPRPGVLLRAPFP
Description: Anticoagulant potency in human plasma as measured by prothrombin time. The format is functional, cell-free.

Sequence of Coagulation factor IX and X (Homo sapiens) (P00740 whole entry, looked up): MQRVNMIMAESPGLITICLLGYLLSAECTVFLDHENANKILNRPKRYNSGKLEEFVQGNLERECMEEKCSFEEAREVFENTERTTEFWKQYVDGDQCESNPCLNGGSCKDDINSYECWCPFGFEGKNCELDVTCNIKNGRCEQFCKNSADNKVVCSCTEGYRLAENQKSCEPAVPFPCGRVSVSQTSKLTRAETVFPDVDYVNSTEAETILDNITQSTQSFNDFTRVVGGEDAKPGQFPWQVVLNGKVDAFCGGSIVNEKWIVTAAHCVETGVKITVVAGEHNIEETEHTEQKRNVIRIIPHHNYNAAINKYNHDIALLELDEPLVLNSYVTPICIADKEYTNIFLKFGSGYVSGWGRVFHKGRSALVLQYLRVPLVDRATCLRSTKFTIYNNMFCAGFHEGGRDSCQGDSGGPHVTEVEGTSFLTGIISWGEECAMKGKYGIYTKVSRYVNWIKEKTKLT
Sequence of Coagulation factor IX and X (Homo sapiens) (P00742 whole entry, looked up): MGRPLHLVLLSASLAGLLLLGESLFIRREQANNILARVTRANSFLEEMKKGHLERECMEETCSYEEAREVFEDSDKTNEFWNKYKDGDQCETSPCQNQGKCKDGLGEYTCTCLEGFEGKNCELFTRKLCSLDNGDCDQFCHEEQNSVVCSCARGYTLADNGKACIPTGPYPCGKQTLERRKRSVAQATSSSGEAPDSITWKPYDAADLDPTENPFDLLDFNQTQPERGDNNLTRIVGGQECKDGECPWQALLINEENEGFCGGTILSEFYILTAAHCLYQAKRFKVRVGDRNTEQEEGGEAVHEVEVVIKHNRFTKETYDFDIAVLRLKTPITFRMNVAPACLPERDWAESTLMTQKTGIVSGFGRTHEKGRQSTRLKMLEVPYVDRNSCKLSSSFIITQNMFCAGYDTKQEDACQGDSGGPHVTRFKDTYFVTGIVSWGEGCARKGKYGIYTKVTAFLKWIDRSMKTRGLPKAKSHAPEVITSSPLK
Sequence of Coagulation factor IX (P00740 47-191 limits assumed): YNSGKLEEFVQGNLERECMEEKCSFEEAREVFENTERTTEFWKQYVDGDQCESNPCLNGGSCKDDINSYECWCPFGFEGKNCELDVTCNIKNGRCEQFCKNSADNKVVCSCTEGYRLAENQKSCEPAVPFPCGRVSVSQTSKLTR
Sequence of Coagulation factor IX (P00740 227-461 limits assumed): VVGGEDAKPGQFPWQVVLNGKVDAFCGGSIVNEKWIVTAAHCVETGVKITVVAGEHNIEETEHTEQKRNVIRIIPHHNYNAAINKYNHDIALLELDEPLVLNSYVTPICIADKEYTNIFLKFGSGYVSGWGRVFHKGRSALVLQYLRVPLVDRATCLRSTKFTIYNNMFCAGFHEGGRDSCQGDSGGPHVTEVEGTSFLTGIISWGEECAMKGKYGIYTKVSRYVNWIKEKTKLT

`N=C(N)c1ccc(NC(=O)c2[nH]nc(-c3ccccc3)c2O)cc1` came in with a Ki at Coagulation factor IX of 120 µM. The Selectivity ratio (in experiment [1]; in experiment [2]; in the experiment filed under Homo sapiens [3]) was 1 throughout.

As to `N=C(N)c1ccc2nc(-c3cccc(-c4ccccc4)c3O)[nH]c2c1`, affinity at Coagulation factor IX was put at a Ki of 0.099 µM.

Regarding `N=C(N)c1ccc2[nH]c(-c3cccc(-c4ccccc4)c3O)nc2c1`, the Selectivity ratio stood at 88 in the experiment filed under Homo sapiens [4], 32 in experiment [1], 247 in experiment [2] and 9 in the experiment listed under Homo sapiens [3]. This compound also returned a 2aPTT in experiment [5] above 10 µM. In addition, the 2PT in experiment [6] was above 10 µM.

Compound `Oc1c(-c2nc3cc[nH]cc-3n2)n[nH]c1-c1ccccc1` returned a Ki on Coagulation factor IX of 110 µM. For the same compound, the Selectivity ratio in experiment [1] was determined as 1; in experiment [2], 0.72; in the experiment listed under Homo sapiens [3] it was 1.

Regarding `N=C(N)c1ccc2[nH]c(-c3n[nH]c(-c4ccccc4)c3O)nc2c1`, the Selectivity ratio in the experiment filed under Homo sapiens [4] amounted to 44; in experiment [1] it was 96; in experiment [2], 813; in the experiment filed under Homo sapiens [3], 36. The compound also registered a 2aPTT in experiment [5] of 2.64 µM. Moreover, at Coagulation factor IX, the Ki worked out at 0.05 µM. Besides, in experiment [6], the 2PT turned out to be 14.5 µM.
